Assays:
5-HT1B = assay: Hypothermia test in the guinea-pig (antagonism of GR46611); type: in vivo; settings: for ΔT ° C. (90 min) / ΔT ° C. (120 min): mean ± s.e.m.
From the text: Using the hypothermia test on the guinea-pig (M. Stingle et al., J. of Psychopharmacology, 1994, 8, 14) it was possible to determine the agonist or antagonist nature of the products of the invention.
The guinea-pigs are kept in batteries of three, with free access to food and water, for one week before entering the study. One hour before each experiment, the guinea-pigs are placed in individual cages with free access to water. They are put back in their respective batteries at the end of each experiment. The temperature measurements are carried out using a digital thermometer and a rectal probe. Each guinea-pig is weighed, its base body temperature is taken and then the compound of the present invention to be evaluated is injected i.p. or p.o.
In the case of an agonist, the body temperature of each guinea-pig is taken every 30 minutes for 2 hours.
In the case of an antagonist, 15 minutes after injection each guinea-pig is injected again i.p. with the prototype agonist 5-HT1B : GR46611 (5 mg/kg/ml). The temperature is then taken every 30 minutes for 2 hours.
The criterion used for evaluation is the difference in temperature at a given time in relation to the base temperature. For each dose of product and for each time (t30, t60, t90, t120) the mean and the standard error of the mean are calculated.

5-HT1A receptor = molecular target: T1, 5-HT1A receptor (Rattus norvegicus, UniProt P19327); assay: 5-HT1A binding
T1 construct: from tissue
T1 sequence (P19327 1-422): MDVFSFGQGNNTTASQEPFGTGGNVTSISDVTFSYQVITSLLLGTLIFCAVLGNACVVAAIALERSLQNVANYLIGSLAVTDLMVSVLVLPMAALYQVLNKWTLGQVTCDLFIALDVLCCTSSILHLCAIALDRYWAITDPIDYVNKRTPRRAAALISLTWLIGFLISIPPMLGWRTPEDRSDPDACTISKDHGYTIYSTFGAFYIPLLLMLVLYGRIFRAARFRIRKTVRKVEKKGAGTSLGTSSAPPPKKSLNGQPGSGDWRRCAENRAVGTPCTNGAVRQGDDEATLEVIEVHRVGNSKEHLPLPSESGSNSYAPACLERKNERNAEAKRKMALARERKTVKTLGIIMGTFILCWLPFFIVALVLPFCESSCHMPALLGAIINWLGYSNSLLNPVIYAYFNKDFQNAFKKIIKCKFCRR
Description: The 5-HT1A receptor binding studies were carried out according to methods known and described in the literature (cf. S. J. Peroutka, J. Neurochem, 1986, 47, 529-40, M. J. Millan, J. Pharmacol. Exp. Ther., 1994, 268, 337-52). The results are also expressed as pKi.

[1] = tested on: extracellular concentration of serotonin; assay: Microdialysis experiment in rats (frontal cortex); type: in vivo; settings: rat frontal cortex dialysate, subcutaneous route, compound alone
From the text: Those tests, carried out in the frontal cortex, make it possible in the case where the products cause an increase in the release of serotonin to envisage their use for depression, impulsive disorders and obesity. If they cause a decrease in the release of serotonin they will be beneficial in the treatment of anxiety, panic attacks, sleep problems, cognitive problems and drug abuse. Finally, if they produce an increase in dopamine and/or noradrenalin, they will be beneficial in the treatment of schizophrenia and, as above, in the treatment of depression and cognitive problems.
The rats are anaesthetised with pentobarbital (60 mg/kg i.p.). […]
Simultaneous quantification of dopamine, norepinephrine and serotonin is carried out as follows: 20 μl of dialysis samples are diluted with 20 μl of mobile phase (NaH2 PO4 : 75 mM, EDTA: 20 μM, sodium dodecanesulphonate: 1 mM, methanol: 17.5%, triethylamine: 0.01%, pH: 5.70) and 33 μl are analysed by HPLC with an inverse phase column (Hypersil ODS 5 μm, C18, 150×4.6 mm, Thermo Separation Products, Les Ulis, France) thermo-statically controlled at 45° C. and quantified by way of a coulometric detector. […] The quantities of neurotransmitters are expressed as a function of the mean of the three base values. […]

5-HT1B receptor = molecular target: T2, 5-HT1B receptor (Cavia porcellus, UniProt O08892); assay: 5-HT1B binding ([3H]-GR 125743, guinea-pig striatal membranes); settings: [3H]-GR 125743 1 nM, guinea-pig striata membranes
T2 construct: After dissection of guinea-pig brains, the extracted striata are frozen; from tissue; host or cells: guinea-pig striatum membranes
Description: After dissection of guinea-pig brains, the extracted striata are frozen and then homogenised in 20 volumes (weight/volume) of 50 mM tris-HCl (pH 7.7 at room temperature) containing 4 mM CaCl2 and 0.1% ascorbic acid, and centrifuged at 48,000 g for 25 minutes at 4° C. The supernatant is separated and the precipitate is resuspended in the same volume of buffer before being incubated at 37° C. for 15 minutes in order to extract the endogenous serotonin. Finally, the suspension is centrifuged at 48,000 g for 25 minutes at 4° C. and the precipitate is resuspended in 80 volumes of buffer containing 10 μM pargyline.
The binding studies ([^3 H]-GR 125743) are carried out in triplicate in the following buffer: 50 mM tris-HCl (pH 7.7 at room temperature) containing 4 mM CaCl2, 0.1% ascorbic acid and 10 μM pargyline. […]
The data are analysed by non-linear regression using the PRISM programme (Graphpad Software Inc., San Diego, Calif.) in order to determine the Kd values (dissociation constant of the radioligand), the Bmax values (maximum number of sites) for the saturation experiments and the IC50 values (50% inhibiting concentration) and the Hill number for the competition experiments. The inhibition constant (Ki) is calculated according to the Cheng-Prussof equation : Ki =IC50 /1+L/Kd wherein L represents the concentration of the radioligand. The results are expressed as pKi =-log Ki.

[2] = 0.04 mg/kg i.p., then GR46611 5 mg/kg
[3] = 0.16 mg/kg i.p., then GR46611 5 mg/kg
[4] = injection 1 Vehicle i.p., injection 2 GR46611 5 mg/kg

T2 sequence (O08892 whole entry): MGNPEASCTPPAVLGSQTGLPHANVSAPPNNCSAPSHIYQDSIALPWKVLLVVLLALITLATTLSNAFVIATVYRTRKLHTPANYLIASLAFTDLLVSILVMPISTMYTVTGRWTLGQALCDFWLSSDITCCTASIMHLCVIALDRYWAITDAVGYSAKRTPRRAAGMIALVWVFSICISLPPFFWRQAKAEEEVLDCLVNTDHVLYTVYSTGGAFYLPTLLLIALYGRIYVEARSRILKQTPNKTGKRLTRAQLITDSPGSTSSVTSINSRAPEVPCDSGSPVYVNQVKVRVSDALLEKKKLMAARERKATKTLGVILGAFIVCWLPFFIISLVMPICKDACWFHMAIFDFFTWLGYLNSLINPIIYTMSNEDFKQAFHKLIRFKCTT

COc1cc2c(cc1OC)-c1cc(CCNC3CCN(c4cccc5c4OCCO5)CC3)cn1CC2 [Example 11, 5,6-dihydro-8,9-dimethoxy-2-{2-{[1-(2,3-dihydro[1,4]benzodioxin-5-yl)-piperid-4-ylamino]ethyl}}pyrrolo[2,1-a]isoquinoline]
ΔT ° C. (90 min) (5-HT1B; [2]): -1.10 ± 0.36 °C
ΔT ° C. (120 min) (5-HT1B; [2]): -1.43 ± 0.24 °C
ΔT ° C. (90 min) (5-HT1B; [3]): -0.57 ± 0.17 °C
ΔT ° C. (120 min) (5-HT1B; [3]): -0.67 ± 0.28 °C
agonist or antagonist nature (5-HT1B; hypothermia test, i.p. route): acts as an antagonist

c1ccc2c(c1)CC2CNC1CCN(c2cccc3c2OCCO3)CC1 (stereo not shown) [Example 4, N-(benzocyclobuten-1-ylmethyl)-N-[1-(2,3-dihydro[1,4]benzodioxin-5-yl)piperid-4-yl]amine]
Ki (5-HT1A receptor): 3.16 µM

COc1ccc(CNC(=O)/C=C/c2ccc3[nH]cc(CCN(C)C)c3c2)cc1 [GR46611, reference compound]
ΔT ° C. (90 min) (5-HT1B; [4]): -1.05 ± 0.13 °C
ΔT ° C. (120 min) (5-HT1B; [4]): -1.40 ± 0.36 °C
extracellular concentration of serotonin [1]: decrease in the extracellular concentration of serotonin

c1cc2c(c(N3CCC(NCCC45CC6CC(CC(C6)C4)C5)CC3)c1)OCCO2 [Example 9, N-[2-(adamant-1-yl)ethyl]-N-[1-(2,3-dihydro[1,4]benzodioxin-5-yl)-piperid-4-yl]amine]
Ki (5-HT1B receptor): 0.01 µM
